{
  "source": "patent EP0470144B1",
  "about": "“BETA-HYDROXAMATE D-ASPARTIC ACID FOR TREATMENT OF VIRAL INFECTIONS AND TUMOURS” (priority 1989, dated 1990)",
  "key": {"[1]": {"test_system": "lymphocytes de donneurs sains", "experiment": "Growth and cell mortality of uninfected lymphocytes from healthy donors", "type": "cell-based", "conditions": "0,5-2 mM DAH", "description": "Cette inhibition est dose-dépendante. Les essais ont d'abord porté sur des lymphoytes de donneurs sains (Figures 1 et 2). On a pu mettre en évidence cette activité sur deux modèles de réplication du HIV : a) lymphocytes normaux infectés par le virus purifié et b) coculture des lymphocytes des malades du SIDA et de lymphocytes normaux. On a mesuré l'activité transcriptase inverse pendant 22 jours dans le surnageant de cultures cellulaires comme critère de prolifération virale. Le traitement avec le DAH a duré 72 heures de J₀ à J₃ de la manipulation (Figures 3, 4 et 5). […] Par contre, le DAH s'est montré plus toxique vis-à-vis des lymphocytes infectés par le virus du SIDA (Figures 6 et 7).\nEffet du DAH sur le taux de croissance de lymphocytes de donneurs sains.\n(●) absence de DAH (o) concentration en DAH = 0,5 mM (□) concentration en DAH = 1 mM (△) concentration en DAH = 1,5 mM (◇) concentration en DAH = 2 mM • . En abscisses : temps de culture (en jours) • . En ordonnées : taux de croissance\nEffet du DAH sur la mortalité cellulaire de lymphocytes sains.\n(●) absence de DAH (o) concentration en DAH = 0,5 mM (□) concentration en DAH = 1 mM (△) concentration en DAH = 1,5 mM (◇) concentration en DAH = 2 mM • . En abscisses : temps de culture (en jours) • . En ordonnées : proportion de cellules mortes (en %)"}, "[2]": {"target": "T1, transcriptase inverse (RT) du FLV (Friend murine leukemia virus, UniProt P26810)", "T1 construct": "comme source de RT une préparation de FLV hautement purifié; from tissue; host or cells: highly purified FLV virus preparation (virions)", "experiment": "Reverse transcriptase (RT) activity of highly purified FLV, poly A-oligo dT substrate", "type": "biochemical", "conditions": "at concentrations giving the anti-retroviral effect in cell culture", "description": "La transcriptase inverse étant la cible de divers agents anti-rétroviraux, il est intéressant de tester l'effet du DAH sur l'activité transcriptase inverse (RT) du FLV. Cet essai a été effectué en utilisant comme source de RT une préparation de FLV hautement purifié, et comme substrat du poly A-oligo dT. Les substrats ont été introduits dans le milieu réactionnel dans l'ordre suivant : DAH aux concentrations désirées, virus purifié, polyA-oligo dT, dTTP + ³HdTTP."}, "leucémie L1210": {"test_system": "leucémie L1210", "experiment": "Antitumour activity in the L1210 leukaemia model, survival", "type": "in vivo, souris B6D2F1/J", "conditions": "for Nombre d'animaux survivants: at 30 days", "description": "L'activité antitumorale du DAH et du LAH a été étudiée sur le modèle de leucémie L1210. Les cellules leucémiques L1210 sont maintenues par passages intrapéritonéaux dans la souris B6D2F1/J mâle. […] La durée d'observation est de 30 jours."}, "[3]": {"experiment": "Pre-clinical pharmacology: DAH levels in serum and urine after intraperitoneal injection", "type": "in vivo, souris B6D2F1", "conditions": "3 g/kg intraperitoneal", "description": "Le DAH a été dosé dans les sérums et les urines de souris B6D2F1 âgées de 8 semaines, ayant reçu une injection intrapéritonéale de DAH de 3 g/kg. Le DAH a été dosé par spectrophotométrie par mise en évidence du complexe Fe3+- hydroxamate à 550 nm."}, "[4]": {"experiment": "Acute parenteral toxicity in mice (lethal doses)", "type": "in vivo, souris B6D2F1", "conditions": "evaluated at 24 hours and 14 days", "description": "La toxicité du DAH par voie parentérale a été évaluée chez la souris B6D2F1 âgée de six semaines et pesant entre 20 et 22 g. Pour chaque niveau de dose, on a utilisé treize mâles et treize femelles avec une période d'observation de 14 jours. La dose léthale (DL) a été évaluée 24 heures après l'injection de DAH puis à 14 jours. Dans ces conditions, on a pu montrer que la DL 10 (10 % de mortalité) était observée pour des posologies de 8,5-9 g/kg, la DL 50 correspondait à 11-12 g/kg et la DL 90 à 14-15 g/kg. Il n'a pas été observé de différence significative de mortalité à 24 heures et à 14 jours pour un niveau de dose donné."}, "[5]": {"experiment": "Toxicity in dogs (NCI recommendations), intravenous administration", "type": "in vivo, chiens Beagle", "description": "En suivant les recommandations du National Cancer Institute (NCI), on a déterminé : a) la dose maximale non toxique, b) la dose toxique faible, c) la dose maximale toxique non léthale, d) la dose léthale.\nCes études ont été réalisées sur des chiens Beagle âgés de six à sept mois et pesant 6,5 à 7,5 kg. Pour mettre en évidence les effets toxiques du DAH, on a mesuré des paramètres cliniques, morphologiques, biochimiques et hématologiques.\nL'évaluation de la fréquence cardiaque, l'électrocardiogramme, la pression artérielle (mesurée par cathétérisme intra-artériel), et la fréquence respiratoire ont été mesurées chez des chiens anesthésiés par l'alphachloralose."}, "[6]": {"test_system": "leucémie 1210, lymphome RBL5 et mélanome B16", "conditions": "600 mg/kg per day for 5 days; cited from earlier work"}},
  "note": "“And” between values parts separate entries of the source, which are not always exact repeats. Equal values may be shown once.",
  "data": [
    {"smiles": "N[C@@H](CC(=O)NO)C(=O)O", "note": "[DAH, D-acide aspartique β-hydroxamate]", "values": [
      {"measurement": "toxicité pour les lymphocytes non infectés par le virus HIV", "setting": "[1]", "result": "n'est pas toxique"},
      {"measurement": "effet sur l'activité RT", "setting": "[2]", "result": "aucun effet"},
      {"measurement": "T/Cx100", "setting": "leucémie L1210; 0,5 g/kg x4/j, days 1,2,3", "result": 113, "unit": "%"},
      {"measurement": "Nombre d'animaux survivants", "setting": "leucémie L1210; 0,5 g/kg x4/j, days 1,2,3", "result": "0/5"},
      {"measurement": "T/Cx100", "setting": "leucémie L1210; 1,5 g/kg x4/j, days 1,2,3", "result": 276, "unit": "%"},
      {"measurement": "T/Cx100", "setting": "leucémie L1210; 1,5 g/kg x4/j, days 1,2,3,4", "result": 347, "unit": "%"},
      {"measurement": "Nombre d'animaux survivants", "setting": "leucémie L1210; 1,5 g/kg x4/j, days 1,2,3,4", "result": "3/5"},
      {"measurement": "Nombre d'animaux survivants", "setting": "leucémie L1210; 1,5 g/kg x4/j, days 1,2,3", "result": "0/5"},
      {"measurement": "T/Cx100", "setting": "leucémie L1210; 1 g/kg x3/j, days 1-10", "result": 347, "unit": "%"},
      {"measurement": "Nombre d'animaux survivants", "setting": "leucémie L1210; 1 g/kg x3/j, days 1-10", "result": "3/5"},
      {"measurement": "T/Cx100", "setting": "leucémie L1210; 1 g/kg x4/j, days 1,2,3", "result": 171, "unit": "%"},
      {"measurement": "Nombre d'animaux survivants", "setting": "leucémie L1210; 1 g/kg x4/j, days 1,2,3", "result": "0/5"},
      {"measurement": "survie des animaux traités", "setting": "leucémie L1210; 1 g/kg, 4 times a day for 3 days", "result": "prolongation très significative de la survie"},
      {"measurement": "activité antitumorale", "setting": "leucémie L1210; dose of 1 g/kg or more, 3 or 4 times a day", "result": "activité antitumorale significative"},
      {"measurement": "modification structurale du DAH éliminé par voie urinaire", "setting": "[3]", "result": "aucune modification structurale"},
      {"measurement": "pic plasmatique moyen", "setting": "[3]", "result": 6, "unit": "mg/mL"},
      {"measurement": "pic urinaire", "setting": "[3]", "result": 220, "unit": "mg/mL"},
      {"measurement": "temps du pic plasmatique", "setting": "[3]", "result": 20, "unit": "min"},
      {"measurement": "élimination urinaire prolongée sur", "setting": "[3]", "result": 24, "unit": "heures"},
      {"measurement": "temps du pic urinaire", "setting": "[3]; after injection", "result": 250, "unit": "min"},
      {"measurement": "demi-vie", "setting": "[3]; decrease of plasma concentration", "result": 35, "unit": "min"},
      {"measurement": "DL 10 (10 % de mortalité)", "setting": "[4]", "result": "8,5-9 g/kg and 8,5 g/kg"},
      {"measurement": "DL 50", "setting": "[4]", "result": "11 to 12", "unit": "g/kg"},
      {"measurement": "DL 90", "setting": "[4]", "result": "14 to 15", "unit": "g/kg"},
      {"measurement": "nadir plaquettes", "setting": "[5]; 5 g/kg, 8th day after injection, return to pre-treatment level seven to ten days later", "result": "39 x 109 plaquettes/l"},
      {"measurement": "nadir plaquettes", "setting": "[5]; 9 g/kg, twenty-two days after injection", "result": "17 x 109 plaquettes/l"},
      {"measurement": "récupération partielle (plaquettes)", "setting": "[5]; 9 g/kg, two months later", "result": 56, "unit": "x 10⁹/l"},
      {"measurement": "fréquence cardiaque, électrocardiogramme, pression artérielle, fréquence respiratoire", "setting": "[5]; anaesthetised dogs, intravenous 1 to 5 g/kg", "result": "aucune modification"},
      {"measurement": "dose maximale non toxique", "setting": "[5]; dog, in vivo", "result": "2,5-3 g/kg"},
      {"measurement": "dose toxique faible", "setting": "[5]; dog, in vivo", "result": 5000, "unit": "mg/kg"},
      {"measurement": "dose toxique maximale non léthale", "setting": "[5]; dog, in vivo", "result": "~9000", "unit": "mg/kg"},
      {"measurement": "toxicité de la fonction rénale ou hépatique", "setting": "[5]; doses up to 9 g/kg", "result": "Aucune toxicité"},
      {"measurement": "toxicité sur les lignées granulo-monocytaires et érythrocytaires", "setting": "[5]; including high doses (9 g/kg)", "result": "Aucune toxicité"},
      {"measurement": "dose à partir de laquelle une toxicité sur la lignée plaquettaire a été constatée", "setting": "[5]; intravenous", "result": "≥ 5000", "unit": "mg/kg"},
      {"measurement": "Effets toxiques d'apparition immédiate", "setting": "[5]; intravenous 1 to 10 g/kg (10 % solution), during administration, with anorexia up to 24 hours", "result": "vomissements"},
      {"measurement": "tolérance à l'administration réitérée", "setting": "[5]; intravenous, two weeks, five weekly injections of 1 g/kg", "result": "aucun signe d'intolérance autre que des vomissements"},
      {"measurement": "complication rénale", "setting": "[5]; one dog, dose of more than 10 g/kg, avoided later by prehydration", "result": "précipitation des cristaux de DAH dans les tubules rénaux"},
      {"measurement": "activité in vivo sur trois modèles tumoraux murins", "setting": "[6]", "result": "aucune activité"}
    ]}
  ]
}
